Consider 2 compounds from publication PMC5893282 (ACS infectious diseases, 2018).

Each structure is given as a SMILES string.

In one assay the target is FlAsH-LexAPa with RecA* (Pseudomonas aeruginosa, UniProt P37452). The experiment in a line: Pilot screen of Microsource Spectrum library with FlAsH-LexAPa. The assay is classed as biochemical, P. aeruginosa. To be noted: fixed concentration of 16 μM, single endpoint.
The subject of assay [1] is E. coli ΔtolC PrecA-GFP SOS reporter. Description: Cell-based SOS reporter assay. To be noted: ciprofloxacin 128 ng/mL, 2 hours, ΔtolC reporter strain.

Sequence of FlAsH-LexAPa with RecA* (P37452 81-204): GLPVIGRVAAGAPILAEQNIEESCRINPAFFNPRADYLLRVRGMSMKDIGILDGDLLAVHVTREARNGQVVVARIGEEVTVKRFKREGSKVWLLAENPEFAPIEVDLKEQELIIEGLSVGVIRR

Consider `Cc1ccc(C(=O)Nc2ccc(S(=O)(=O)O)c3cc(S(=O)(=O)O)cc(S(=O)(=O)O)c23)cc1NC(=O)c1cccc(NC(=O)Nc2cccc(C(=O)Nc3cc(C(=O)Nc4ccc(S(=O)(=O)O)c5cc(S(=O)(=O)O)cc(S(=O)(=O)O)c45)ccc3C)c2)c1` [suramin], for which, at FlAsH-LexAPa with RecA*, the “Hit in pilot screen” value is on record as “identified in this pilot screen”. As to `O=C(O)c1cn(C2CC2)c2cc(N3CCNCC3)c(F)cc2c1=O` [ciprofloxacin], in assay [1], the “Increase in GFP fluorescence over the unstressed control” value was ~ 50 fold.
